Literature values in publication PMC6891678, “A Novel Prodrug Approach for Central Nervous System-Selective Estrogen Therapy” (Molecules, 2019).
Values belong to the molecule of their own block, whether it stands above or below them.

Assays:
[1] = system: retina homogenate; conditions: 100 μM, 37 °C, homogenate 0.2% w/v, pH 7.4; mean ± SD
[2] = system: brain homogenate; conditions: 100 μM, 37 °C, homogenate 0.2% w/v, pH 7.4; mean ± SD
[3] = system: liver homogenate; conditions: 100 μM, 37 °C, homogenate 0.2% w/v, pH 7.4; mean ± SD
[4] = system: transient middle cerebral artery occlusion (tMCAO) ischemic stroke model; conditions: for ED50 (dose equivalent to 50% of the maximum effect): neuroprotection, tMCAO followed by reperfusion
[5] = system: MCP-1−/− transgenic mouse model; parameters: method as in earlier work; conditions: topical eye drops; for increase of contrast sensitivity compared to the vehicle control: ipsilateral/treated eye
[6] = system: ER transcription (ERE-Luc reporter)
[7] = system: middle-aged OVX Fisher-344 rats; conditions: continuous 7-week s.c. administration, 4 µg daily dose
[8] = system: amyloid-β peptide (Aβ); conditions: OVX and intact female APPswe/PS1dE9 DTG mice
[9] = not given; remark: listed apart in the source
[10] = E2-CDS-treated animals
[11] = system: uterus; conditions: after E2-CDS
[12] = system: OVX CD1 mice; conditions: increasing s.c. doses, 5 days once daily
[13] = system: uterus; conditions: increasing s.c. doses, 5 days once daily
[14] = 300 µg/kg s.c., 5 days once daily, SEM, n = 4

SMILES: C[C@]12CC[C@@H]3C4=C(CC[C@H]3[C@@H]1CCC2=O)C(=O)C(=O)C=C4 [3,4-E1-quinone, estra-1,5(10)-dien-3,4,17-trione, reference compound]
Rate of H2O2 production, Retina [1]: 580 ± 50 nmol·h^−1·mg protein^−1
Rate of H2O2 production, Brain [2]: 1050 ± 8 nmol·h^−1·mg protein^−1
Rate of H2O2 production, Liver [3]: 687 ± 40 nmol·h^−1·mg protein^−1

SMILES: C[C@]12CC[C@H]3[C@@H](CCC4=CC(=O)C=C[C@@]43O)[C@@H]1CC[C@@H]2O [DHED, 10β,17β-dihydroxyestra-1,4-dien-3-one]
ED50 (dose equivalent to 50% of the maximum effect) [4]: 15 µg/kg
increase of contrast sensitivity compared to the vehicle control [5]: approximately 3 fold
preservation of contrast sensitivity compared to the wild-type (WT) control [5]: approximately 75%
ER activation within the brain (bioluminescence in brain slices) ([6]; i.c.v. injection, 75 µg/kg): profound ER activation
bioluminescence in the periphery (ERE-Luc reporter activation) ([6]; s.c., E2 20 μg/kg, DHED 200 μg/kg): did not generate bioluminescence in the periphery
oral bioavailability: excellent oral bioavailability
working memory errors compared to control animals [7]: significantly decreased working memory errors
amyloid-β peptide (Aβ) levels in the brain [8]: decreased amyloid-β peptide (Aβ) levels in the brain
Rate of H2O2 production, Retina [1]: 163 ± 9 nmol·h^−1·mg protein^−1
Rate of H2O2 production, Brain [2]: 125 ± 19 nmol·h^−1·mg protein^−1
Rate of H2O2 production, Liver [3]: 34 ± 18 nmol·h^−1·mg protein^−1

E2 concentration in the retina ([9]; 3-week daily E2 eye drops): ~ 22 ng/g
circulating estrogen levels ([9]; chronic E2 eye drop treatment): > 400 pg/mL
oral bioavailability: lacks appreciable oral bioavailability
SMILES: C[C@]12CC[C@@H]3c4ccc(O)cc4CC[C@H]3[C@@H]1CC[C@@H]2O [E2, 17β-estradiol, reference compound]
ED50 (dose equivalent to 50% of the maximum effect) [4]: ~ 200 µg/kg
increase of contrast sensitivity compared to the vehicle control [5]: ~2 fold
preservation of contrast sensitivity compared to the wild-type (WT) control [5]: ~50%
time of maximum bioluminescence effect after drug treatment ([6]; E2 20 μg/kg s.c.): about 3 h

E2 content of uterus [10]: 1 to 3 ng/g
SMILES: CN1C=CCC(C(=O)O[C@H]2CC[C@H]3[C@@H]4CCc5cc(O)ccc5[C@H]4CC[C@]23C)=C1 [E2-CDS]
wet uterine weight relative to control (uterotrophic effect) [11]: significant increase in wet uterine weight

SMILES: C[C@]12CC[C@H]3[C@@H](CCC4=CC(=O)C=C[C@@]43O)[C@@H]1CCC2=O [HEDD, 10β-hydroxyestra-1,4-dien-3,17-dione]
neuroprotection in stroke model ([4]; without peripheral hormonal liability): significant neuroprotection

SMILES: C[C@]12CC[C@H]3[C@@H](CCC4=CC(=O)C=C[C@@]43O)[C@@H]1CC[C@H]2O [αDHED, 10β,17α-dihydroxyestra-1,4-dien-3-one]
immobility time in PST [12]: dose-dependent reduction in immobility times
uterotrophic effect (wet uterus weight) [13]: devoid of this detrimental common side effect
Cortex αE2 [14]: 8.9 ± 1.7 ng/g
Serum αE2 [14]: <0.01 ng/mL
Cortex E2 ([14]; endogenous E2): 0.28 ± 0.09 ng/g
Serum E2 ([14]; endogenous E2): <0.01 ng/mL
Uterus E2 ([14]; endogenous E2): 0.37 ± 0.10 ng/g

SMILES: C[C@]12CC[C@@H]3c4ccc(O)cc4CC[C@H]3[C@@H]1CC[C@H]2O [αE2, 17α-estradiol, reference compound]
immobility time in PST [12]: dose-dependent reduction in immobility times
